In patent publication US20210087232A1, “D-ENANTIOMERIC PEPTIDES FOR ANTI-INFLAMMATORY TREATMENT OF AMYOTROPIC LATERAL SCLEROSIS (ALS) AND OTHER DISEASES DRIVEN BY NEURO-INFLAMMATION” (FORSCHUNGSZENTRUM JUELICH GMBH, priority 2018, published 2021):
Where no end group is shown, it is not given here. [ ]: non-standard residue; d: D form.

System: transgenic ALS mice (tg G93R SOD1 mice)
Assay: Treatment studies in transgenic ALS mice: behavioral and motor tests (open field, SHIRPA, pole, hind-leg grip strength, rotarod, hind-leg spread) and histological analyses
Assay type: in vivo
Conditions: two treatment studies
Method: To analyze the anti-inflammatory effect of RD2RD2 as a potential therapeutic for treating ALS, two treatment studies were carried out in transgenic ALS mice (tg G93R SOD1 mice).

ptlhthnrrrrrptlhthnrrrrr ([dP][dT][dL][dH][dT][dH][dN][dR][dR][dR][dR][dR][dP][dT][dL][dH][dT][dH][dN][dR][dR][dR][dR][dR]) [RD2RD2]
disease onset (behavioral and motor tests): delays disease onset
disease progression (behavioral and motor tests): slows disease progression
inflammatory reactions (histological analyses): reduces inflammatory reactions
